US5464617A, “β-lactam compounds” (Hoffmann-La Roche Inc., priority 1994, dated 1995)
Converted amounts (≈) assume the structure as drawn. Structures can show the parent of a compound that is named as a salt.

How the values were obtained:
[1] = system: Citrobacter freundii 1982; test: MIC in vitro of a 1:4 combination of ceftriaxone with a compound of formula I (Test D); type: cell-based; conditions: for MIC C. freundii 1982 (D): test D; for MIC C. freundii 1982: Table 2
Method: The minimum inhibitory concentration in vitro ([…]) of a 1:4 combination of ceftriaxone with a compound of formula I against Citrobacter freundii 1982 was measured and compiled in Table 2 hereinafter.

E. coli 1346 = test: Antibacterial activity of the products per se, serial dilution method in liquid medium (Test E); type: cell-based; conditions: product per se; for MIC E. coli 1346 (E): test E; for MIC E. coli 1346: Table 3, liquid medium
Source text: The antibacterial activity of the products per se is illustrated on the basis of Table 3 hereinafter, the minimum inhibitory concentration […] in vitro against E. coli 1346 being determined using the serial dilution method in liquid medium: […]

[2] = Table 4, 1:4 combination of ceftriaxone with the compound
[3] = 1:4 combination of ceftriaxone with the compound

Structure (SMILES): Cc1nnc(SC2=C(C(=O)O)N3C(=O)[C@@H]4[C@H]3[C@H](C2)CN4C(=O)C(F)(F)F)s1 [Example 3(ad), (1aS,3aR,6bR)-5-(5-Methyl-1,3,4-thiadiazol-2-ylsulphanyl)-1-oxo-2-trifluoracetyl-1a,2,3,3a,4,6b-hexahydro-1H-2,6a-diazacyclobut[cd]indene-6-carboxylic acid sodium salt]
- MIC C. freundii 1982 (D) [1, 2]: 8 µg/mL
- MIC E. coli 1346 (E) (E. coli 1346; Table 4): 16 µg/mL

Structure (SMILES): CC(=O)N1C[C@H]2CC(Sc3ccncc3)=C(C(=O)O)N3C(=O)[C@@H]1[C@@H]23 [Example 3(ah), (1aS,3aR,6bR)-2-Acetyl-1-oxo-5-(pyridin-4-ylsulphanyl)-1a,2,3,3a,4,6b-hexahydro-1H-2,6a-diazacyclobut[cd]indene-6-carboxylic acid sodium salt]
- MIC C. freundii 1982 (D) [1, 2]: 2 µg/mL
- MIC E. coli 1346 (E) (E. coli 1346; Table 4): 8 µg/mL

Structure (SMILES): CO/N=C(\C(=O)N1C[C@H]2CC(Sc3nnnn3C)=C(C(=O)O)N3C(=O)[C@@H]1[C@@H]23)c1csc(N)n1 [Example 7, (Z)-(1aS,3aR,6bR)-2-[(2-Amino-thiazol-4-yl)-methoxyiminoacetyl]-1-oxo-5-(1-methyl-1H-tetrazol-5-ylsulphanyl)-1a,2,3,3a,4,6b-hexahydro-1H-2,6a-diazacyclobut[cd]indene-6-carboxylic acid sodium salt]
- MIC C. freundii 1982 [1, 3]: 16 µg/mL
- MIC E. coli 1346 (E. coli 1346): 64 µg/mL

Structure (SMILES): CS(=O)(=O)OC1=C(C(=O)O)N2C(=O)[C@H]3NC[C@@H](C1)[C@H]32 [Example 8, (1aS,3aR,6bR)-5-Methylsulphonyloxy-1-oxo-1a,2,3,3a,4,6b-hexahydro-1H-2,6a-diazacyclobut[cd]indene-6-carboxylic acid trifluoroacetate]
- MIC C. freundii 1982 [1, 3]: 1 µg/mL
- MIC E. coli 1346 (E. coli 1346): 2 µg/mL

Structure (SMILES): COC(=O)CC1=C(C(=O)O)N2C(=O)[C@H]3NC[C@@H](C1)[C@H]32 [Example 12(b), (1aS,3aR,6bR)-5-Methoxycarbonylmethyl-1-oxo-1a,2,3,3a,4,6b-hexahydro-1H-2,6a-diazacyclobut[cd]indene-6-carboxylic acid trifluoroacetate]
- MIC C. freundii 1982 [1, 3]: 4 µg/mL
- MIC E. coli 1346 (E. coli 1346): 8 µg/mL

Structure (SMILES): Cn1nnnc1SCC1=C(C(=O)O)N2C(=O)[C@@H]3[C@H]2[C@H](C1)CN3C(=O)C(F)(F)F [Example 19(c), (1aS,3aR,6bR)-5-(1-Methyl-1H-tetrazol-5-ylsulphanylmethyl)-1-oxo-2-trifluoracetyl-1a,2,3,3a,4,6b-hexahydro-1H-2,6a-diazacyclobut[cd]indene-6-carboxylic acid sodium salt]
- MIC C. freundii 1982 (D) [1, 2]: 0.5 µg/mL
- MIC E. coli 1346 (E) (E. coli 1346; Table 4): 2 µg/mL

Structure (SMILES): Cn1nnnc1SCC1=C(C(=O)O)N2C(=O)[C@@H]3[C@H]2[C@H](C1)CN3C(=O)CC#N [Example 19(d), (1aS,3aR,6bR)-2-Cyanoacetyl-5-(1-methyl-1H-tetrazol-5-ylsulphanylmethyl)-1-oxo-1a,2,3,3a,4,6b-hexahydro-1H-2,6a-diazacyclobut[cd]indene-6-carboxylic acid sodium salt]
- MIC C. freundii 1982 (D) [1, 2]: 0.25 µg/mL
- MIC E. coli 1346 (E) (E. coli 1346; Table 4): 2 µg/mL

Structure (SMILES): Cn1nnnc1SCC1=C(C(=O)O)N2C(=O)[C@@H]3[C@H]2[C@H](C1)CN3S(C)(=O)=O [Example 19(e), (1aS,3aR,6bR)-2-Methylsulphonyl-5-(1-methyl-1H-tetrazol-5-ylsulphanylmethyl)-1-oxo-1a,2,3,3a,4,6b-hexahydro-1H-2,6a-diazacyclobut[cd]indene-6-carboxylic acid sodium salt]
- MIC C. freundii 1982 (D) ([1]; Table 5, particularly preferred products, 1:4 combination with ceftriaxone): 0.25 µg/mL
- MIC E. coli 1346 (E) (E. coli 1346; Table 5, particularly preferred products): 1 µg/mL

Structure (SMILES): Cn1nnnc1SCC1=C(C(=O)O)N2C(=O)[C@@H]3[C@H]2[C@H](C1)CN3C=O [Example 19(k), (1aS,3aR,6bR)-2-Formyl-5-(1-methyl-1H-tetrazol-5-ylsulphanylmethyl)-1-oxo-1a,2,3,3a,4,6b-hexahydro-1H-2,6a-diazacyclobut[cd]indene-6-carboxylic acid sodium salt]
- MIC C. freundii 1982 (D) [1, 2]: 0.25 µg/mL
- MIC E. coli 1346 (E) (E. coli 1346; Table 4): 0.5 µg/mL

Structure (SMILES): C[n+]1ccc(SCC2=C(C(=O)[O-])N3C(=O)[C@H]4NC[C@@H](C2)[C@H]43)cc1 [Example 20, (1aS,3aR,6bR)-5-(1-Methyl-pyridin-4-yliosulphanylmethyl)-1-oxo-1a,2,3,3a,4,6b-hexahydro-1H-2,6a-diazacyclobut[cd]indene-6-carboxylate trifluoroacetate]
- MIC C. freundii 1982 [1, 3]: 1 µg/mL
- MIC E. coli 1346 (E. coli 1346): ≤ 0.5 µg/mL

Structure (SMILES): O=C([O-])C1=C(C[n+]2ccccc2)C[C@@H]2CN[C@@H]3C(=O)N1[C@H]23 [Example 22, (1aS,3aR,6bR)-1-Oxo-5-(pyridin-1-yliomethyl)-1a,2,3,3a,4,6b-hexahydro-1H-2,6a-diazacyclobut[cd]indene-6-carboxylate trifluoroacetate]
- MIC C. freundii 1982 [1, 3]: 4 µg/mL
- MIC E. coli 1346 (E. coli 1346): 4 µg/mL

Structure (SMILES): NC(=O)OCC1=C(C(=O)O)N2C(=O)[C@@H]3[C@H]2[C@H](C1)CN3C(=O)NCc1ccccc1 [Example 27(c), (1aS,3aR,6bR)-2-Benzylcarbamoyl-5-carbamoyloxymethyl-1-oxo-1a,2,3,3a,4,6b-hexahydro-1H-2,6a-diazacyclobut[cd]indene-6-carboxylic acid sodium salt]
- MIC C. freundii 1982 (D) [1, 2]: 0.25 µg/mL
- MIC E. coli 1346 (E) (E. coli 1346; Table 4): > 32 µg/mL

Structure (SMILES): Cc1nnc(SCC2=C(C(=O)O)N3C(=O)[C@H]4NC[C@@H](O2)[C@H]43)s1 [Example 29(a), (1aS,3aR,6bS)-5-(5-Methyl-1,3,4-thiadiazol-2-ylsulphanylmethyl)-1-oxo-1,1a,2,3,3a,6b-hexahydro-4-oxa-2,6a-diazacyclobut[cd]indene-6-carboxylic acid sodium salt]
- MIC C. freundii 1982 (D) [1, 2]: 1 µg/mL
- MIC E. coli 1346 (E) (E. coli 1346; Table 4): 1 µg/mL

Structure (SMILES): O=C(O)C1=C(CSc2ccncc2)O[C@@H]2CN[C@@H]3C(=O)N1[C@@H]32 [Example 29(b), (1aS,3aR,6bS)-1-Oxo-5-(pyridin-4-ylsulphanylmethyl)-1,1a,2,3,3a,6b-hexahydro-4-oxa-2,6a-diazacyclobut[cd]indene-6-carboxylic acid]
- MIC C. freundii 1982 (D) [1, 2]: 2 µg/mL
- MIC E. coli 1346 (E) (E. coli 1346; Table 4): > 16 µg/mL

Structure (SMILES): Nc1nnc(SCC2=C(C(=O)O)N3C(=O)[C@H]4NC[C@@H](O2)[C@H]43)s1 [Example 29(c), (1aS,3aR,6bS)-S-(S-Amino-1,3,4-thiadiazol-2-yl-sulphanylmethyl)-1-oxo-4-oxa-1,1a,2,3,3a,6b-hexahydro-2,6a-diazacyclobut[cd]indene-6-carboxylic acid sodium salt]
- MIC C. freundii 1982 (D) [1, 2]: 0.5 µg/mL
- MIC E. coli 1346 (E) (E. coli 1346; Table 4): 2 µg/mL

Structure (SMILES): Cc1cc(SCC2=C(C(=O)O)N3C(=O)[C@H]4NC[C@@H](O2)[C@H]43)n2nc(C(N)=O)nc2n1 [Example 29(d), (1aS,3aR,6bS)-5-(2-Carbamoyl-5-methyl[1,2,4]triazolo-[1,5-a]pyrimidin-7-ylsulphanylmethyl)-1-oxo-1,1a,2,3,3a,6b-hexahydro-4-oxa-2,6a-diazacydobut[cd]indene-6-carboxylic acid]
- MIC C. freundii 1982 (D) [1, 2]: 8 µg/mL
- MIC E. coli 1346 (E) (E. coli 1346; Table 4): 4 µg/mL (≈ 9.58 µM)

Structure (SMILES): Cn1nnnc1SCC1=C(C(=O)O)N2C(=O)[C@H]3NC[C@@H](O1)[C@H]32 [Example 29(e), (1aS,3aR,6bS)-5-(1-Methyl-1H-tetrazol-5-ylsulphanylmethyl)-1-oxo-1,1a,2,3,3a,6b-hexahydro-4-oxa-2,6a-diazacyclobut[cd]indene-6-carboxylic acid sodium salt]
- MIC C. freundii 1982 (D) [1, 2]: 0.5 µg/mL
- MIC E. coli 1346 (E) (E. coli 1346; Table 4): 1 µg/mL
